Data published in PubChem BioAssay (NCI).
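1) Cells in 96-well plates. 2) Compound, 48 h, 5 concentrations. 3) Linear interpolation between surrounding doses. 4) Unreached endpoint = highest concentration. Definition used: TGI = concentration required for complete inhibition of growth.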

Columns and labels:
Test in all cases: NCI anticancer screen, dose series, 48 h
[1] = tested on: 786-0 renal
[2] = tested on: A498 renal
[3] = tested on: A549 NSCLC
[4] = tested on: ACHN renal
[5] = tested on: CCRF-CEM leukemia
[6] = tested on: COLO 205 colon
[7] = tested on: DLD-1 colon
[8] = tested on: DMS 114 small cell lung
[9] = tested on: DMS 273 small cell lung
[10] = tested on: EKVX NSCLC
[11] = tested on: HCC-2998 colon
[12] = tested on: HCT-116 colon
[13] = tested on: HCT-15 colon
[14] = tested on: HL-60(TB) leukemia
[15] = tested on: HOP-62 NSCLC
[16] = tested on: HOP-92 NSCLC
[17] = tested on: HT29 colon
[18] = tested on: IGROV1 ovarian
[19] = tested on: K-562 leukemia
[20] = tested on: KM20L2 colon
[21] = tested on: LOX IMVI melanoma
[22] = tested on: LXFL 529 NSCLC
[23] = tested on: M14 melanoma
[24] = tested on: M19-MEL melanoma
[25] = tested on: MALME-3M melanoma
[26] = tested on: MOLT-4 leukemia
[27] = tested on: NCI-H226 lung
[28] = tested on: NCI-H23 lung
[29] = tested on: NCI-H460 lung
[30] = tested on: NCI-H522 lung
[31] = tested on: OVCAR-3 ovarian
[32] = tested on: OVCAR-4 ovarian
[33] = tested on: OVCAR-5 ovarian
[34] = tested on: OVCAR-8 ovarian
[35] = tested on: RPMI-8226 leukemia
[36] = tested on: RXF 393 renal
[37] = tested on: SF-268 CNS
[38] = tested on: SF-295 CNS
[39] = tested on: SF-539 CNS
[40] = tested on: SK-MEL-2 melanoma
[41] = tested on: SK-MEL-28 melanoma
[42] = tested on: SK-MEL-5 melanoma
[43] = tested on: SK-OV-3 ovarian
[44] = tested on: SN12C renal
[45] = tested on: SNB-19 CNS
[46] = tested on: SNB-75 CNS
[47] = tested on: SNB-78 CNS
[48] = tested on: SR leukemia
[49] = tested on: SW-620 colon
[50] = tested on: TK-10 renal
[51] = tested on: U251 CNS
[52] = tested on: UACC-257 melanoma
[53] = tested on: UACC-62 melanoma
[54] = tested on: UO-31 renal
[55] = tested on: XF 498 CNS

Measured: TGI

O=P(CCOc1ccccc1OCCP(=O)(c1ccccc1)c1ccc2c(c1)OCCOCCOCCOCCO2)(c1ccccc1)c1ccc2c(c1)OCCOCCOCCOCCO2 (stereo not given)
> 100 µM: all assays above
